One experiment relates to WI-38 cells. In words: MTT proliferation assay, WI-38.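 Note: Eight- or ten-point dilution series, with exposure length chosen to span about three to four cell doublings.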 The experiment is classed as cell-based. Conditions: 3 days compound exposure, 1:3 serial dilution starting at 10 μM. A general note: Tetrazolium assays rely on reduction of a dye to a coloured formazan, in cell work by metabolically active cells.
The next experiment relates to NCI-H1048 cells. In words: MTT proliferation assay, NCI-H1048.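 Note: Dose-response in 96-well plates over 8 or 10 concentration points, with exposure spanning 3-4 cell doublings.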 The experiment is classed as cell-based. Conditions: 5 days compound exposure, 1:3 serial dilution starting at 10 μM.
For a further experiment, the target named is T1, CyclinB1/CDK1 (Homo sapiens, UniProt P14635).
T1 construct: purchased Eurofins, discovery 14-450
The experiment in a line: Fluorescence Polarization (FP) competitive binding assay, Cyclin B1/Cdk1.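 Note: fluorescence polarization read after equilibration at room temperature, with IC50 taken from serially diluted dose-response curves.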 Particulars: 10 nM Cyclin B1/Cdk1, 2 nM FAM probe; average of 2-3 independent experiments; read-out: Cyclin B FP IC50. A general note: In fluorescence polarisation assays a small probe gives low polarisation when free and higher when bound to something large.

The target in the next experiment is T2, CyclinE1/CDK2 (Homo sapiens, UniProt P24864).
T2 construct: purchased Eurofins, discovery 14-475
In words: Fluorescence Polarization (FP) competitive binding assay, Cyclin E1/Cdk2.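 Note: readings taken after two-hour equilibration at room temperature in HEPES buffer with NaCl, DTT, NP-40 and BSA, IC50 fitted from eight-concentration serial dilution series.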 Conditions: 10 nM Cyclin E1/Cdk2, 2 nM FAM probe; average of 2-3 independent experiments; read-out: Cyclin E FP IC50.

A further experiment has as its system OVCAR3 cells. In words: MTT proliferation assay, OVCAR3.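 Note: compound given as an 8- or 10-point series, one day after plating, with exposure covering roughly 3-4 cell doublings.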 The experiment is classed as cell-based. Conditions: 5 days compound exposure, 1:3 serial dilution starting at 10 μM.
The target in a further experiment is T3, CyclinA2/CDK2 (Homo sapiens, UniProt P20248).
T3 construct: purchased CRELUX Protein Services
In words: Fluorescence Polarization (FP) competitive binding assay, Cyclin A2/Cdk2.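 Note: plates equilibrated two hours at room temperature before polarization reading, IC50 fitted from eight-concentration compound titration curves.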 Conditions: 8 nM Cyclin A2/Cdk2, 2 nM FAM probe; average of 2-3 independent experiments; read-out: Cyclin A FP IC50.

*1 amine or outer side, *2 acyl side, *3 side chain or, on linkers, in order; H or OH if unused. Where a SMILES comes first, the peptide text is derived from it. Bridges are numbered along the chain shown (N, C = ends). [ ]: non-standard residue; d: D form. The star is where a group is joined. X10 = CC(C)C(=O)N1[C@H]2COC[C@@H]1C=C(c1ccc(Cl)cc1C[C@@H](C(=O)[*:2])N(C)[*:1])C2; X110 = CC(C)C(=O)N1[C@H]2CC[C@@H]1C=C(c1ccc(Cl)cc1C[C@@H](C(=O)[*:2])N(C)[*:1])C2; X7 = CC(C)C(=O)N1[C@H]2CC[C@@H]1C=C(c1ccc(F)cc1C[C@@H](C(=O)[*:2])N(C)[*:1])C2; X60 = CN([C@@H](Cc1cc(Cl)ccc1-c1cnn2ccncc12)C(=O)[*:2])[*:1]; NMehhhLys(Me) = CN([C@@H](CCCCCCCN(C)[*:3])C(=O)[*:2])[*:1]; NMe(hhhLys) = CN([C@@H](CCCCCCCN[*:3])C(=O)[*:2])[*:1]; X17 = CN([C@@H](Cc1cc(Cl)cnc1N1CCOCC1)C(=O)[*:2])[*:1]; X33 = CN([C@@H](Cc1cc(Cl)cc2c1OCCO2)C(=O)[*:2])[*:1]; cBuCO(3,3-F2-1-CF3) = O=C(C1(C(F)(F)F)CC(F)(F)C1)*; Pro(trans-4-F) = O=C(O)[C@@H]1C[C@@H](F)CN1; Gly(cPr) = N[C@H](C(=O)O)C1CC1

For `CC(C)C[C@@H]1NC(=O)[C@@H](N(C)C(=O)[C@@H](NC(=O)[C@@H]2C[C@@H](F)CN2C(=O)C2(C(F)(F)F)CC(F)(F)C2)C2CC2)CCCCCCCN(C)C(=O)[C@H](Cc2cc(Cl)ccc2-c2cnn3ccncc23)N(C)C1=O` [Example 305] ({cBuCO(3,3-F2-1-CF3)}-[Pro(trans-4-F)][Gly(cPr)][NMehhhLys(Me)]L[X60]; lactam 3-C), the GI50 (commonly the concentration at which growth is held to half of that of the control) with WI-38 cells was found to be 19200 nM; in the experiment with NCI-H1048 cells it was 10 nM; in the experiment on OVCAR3 cells, 20 nM. Moreover, the IC50 – broadly, the concentration needed to halve the response being measured – is 20 nM at CyclinB1/CDK1, 1750 nM at CyclinE1/CDK2 and 50 nM at CyclinA2/CDK2.
Take `CC(C)C[C@@H]1NC(=O)[C@@H](N(C)C(=O)[C@@H](NC(=O)[C@@H]2C[C@@H](F)CN2C(=O)C2(C(F)(F)F)CC(F)(F)C2)C2CC2)CCCCCCCNC(=O)[C@H](Cc2cc(Cl)ccc2C2=C[C@H]3CC[C@@H](C2)N3C(=O)C(C)C)N(C)C1=O` [Example 313] ({cBuCO(3,3-F2-1-CF3)}-[Pro(trans-4-F)][Gly(cPr)][NMe(hhhLys)]L[X110]; lactam 3-C): the GI50 amounted to 36600 nM in the experiment with WI-38 cells, 10 nM with NCI-H1048 cells and 10 nM with OVCAR3 cells. The concentration for half-maximal inhibition (IC50) was 20 nM on CyclinB1/CDK1, 640 nM on CyclinE1/CDK2 and 20 nM on CyclinA2/CDK2.
In the case of `CC(C)C[C@@H]1NC(=O)[C@@H](N(C)C(=O)[C@@H](NC(=O)[C@@H]2C[C@@H](F)CN2C(=O)C2(C(F)(F)F)CC(F)(F)C2)C2CC2)CCCCCCCN(C)C(=O)[C@H](Cc2cc(F)ccc2C2=C[C@H]3CC[C@@H](C2)N3C(=O)C(C)C)N(C)C1=O` [Example 318] ({cBuCO(3,3-F2-1-CF3)}-[Pro(trans-4-F)][Gly(cPr)][NMehhhLys(Me)]L[X7]; lactam 3-C), the GI50 with WI-38 cells came out at 9920 nM; in the experiment with NCI-H1048 cells, 10 nM; in the experiment with OVCAR3 cells, 10 nM. Besides, the results for the IC50 on CyclinB1/CDK1, at CyclinE1/CDK2 and on CyclinA2/CDK2 were 20 nM, 280 nM and 20 nM, respectively.
As for `CC(C)C[C@@H]1NC(=O)[C@@H](N(C)C(=O)[C@@H](NC(=O)[C@@H]2C[C@@H](F)CN2C(=O)C2(C(F)(F)F)CC(F)(F)C2)C2CC2)CCCCCCCN(C)C(=O)[C@H](Cc2cc(Cl)cnc2N2CCOCC2)N(C)C1=O` [Example 320] ({cBuCO(3,3-F2-1-CF3)}-[Pro(trans-4-F)][Gly(cPr)][NMehhhLys(Me)]L[X17]; lactam 3-C), the GI50 in the experiment on WI-38 cells was determined as 15500 nM; with NCI-H1048 cells, 10 nM; in the experiment with OVCAR3 cells, 20 nM. For the same compound, the IC50 at CyclinB1/CDK1 worked out at 20 nM; on CyclinE1/CDK2 it was 1450 nM; at CyclinA2/CDK2 it was 30 nM.
As to `CC(C)C[C@@H]1NC(=O)[C@@H](N(C)C(=O)[C@@H](NC(=O)[C@@H]2C[C@@H](F)CN2C(=O)C2(C(F)(F)F)CC(F)(F)C2)C2CC2)CCCCCCCN(C)C(=O)[C@H](Cc2cc(Cl)cc3c2OCCO3)N(C)C1=O` [Example 321] ({cBuCO(3,3-F2-1-CF3)}-[Pro(trans-4-F)][Gly(cPr)][NMehhhLys(Me)]L[X33]; lactam 3-C), the GI50 in the experiment with WI-38 cells was 89800 nM; with NCI-H1048 cells, 10 nM; with OVCAR3 cells, 10 nM. The figures for the IC50 at CyclinB1/CDK1, on CyclinE1/CDK2 and on CyclinA2/CDK2 were 20 nM, 100 nM and 20 nM, respectively.
`CC(C)C[C@@H]1NC(=O)[C@@H](N(C)C(=O)[C@@H](NC(=O)[C@@H]2C[C@@H](F)CN2C(=O)C2(C(F)(F)F)CC(F)(F)C2)C2CC2)CCCCCCCNC(=O)[C@H](Cc2cc(Cl)ccc2C2=C[C@H]3COC[C@@H](C2)N3C(=O)C(C)C)N(C)C1=O` [Example 327] ({cBuCO(3,3-F2-1-CF3)}-[Pro(trans-4-F)][Gly(cPr)][NMe(hhhLys)]L[X10]; lactam 3-C): the GI50 in the experiment with WI-38 cells amounted to 83900 nM; in the experiment with NCI-H1048 cells it was 10 nM; in the experiment on OVCAR3 cells it was 10 nM. Also, the IC50 at CyclinB1/CDK1 stood at 20 nM; on CyclinE1/CDK2 it was 400 nM; at CyclinA2/CDK2 it was 20 nM.
`CC(C)C[C@@H]1NC(=O)[C@@H](N(C)C(=O)[C@@H](NC(=O)[C@@H]2C[C@@H](F)CN2C(=O)C2(C(F)(F)F)CC(F)(F)C2)C2CC2)CCCCCCCNC(=O)[C@H](Cc2cc(Cl)cc3c2OCCO3)N(C)C1=O` [Example 330] ({cBuCO(3,3-F2-1-CF3)}-[Pro(trans-4-F)][Gly(cPr)][NMe(hhhLys)]L[X33]; lactam 3-C): the 50% growth inhibitory concentration (GI50) with WI-38 cells turned out to be 18500 nM; with NCI-H1048 cells, 10 nM; with OVCAR3 cells, 10 nM. Moreover, the IC50 came out at 20 nM at CyclinB1/CDK1, 100 nM on CyclinE1/CDK2 and 30 nM on CyclinA2/CDK2.
